In US20080139564A1, “SUBSTITUTED PHENYL PROPYL AMINES AS HISTAMINE H3 RECEPTOR AND SEROTONIN TRANSPORTER MODULATORS” (priority 2006, published 2008):

Tests used:
Rat SERT = molecular target: T1, Rat SERT (Rattus norvegicus, UniProt P31652); assay: Rat brain SERT binding ([3H]-Citalopram displacement, rat brain membranes); conditions: 0.6 nM [3H]-Citalopram, 60 min at 25° C.
T1 construct: A rat brain without cerebellum (Zivic Laboratories, Inc.—Pittsburgh, Pa.) was homogenized; tissue Zivic Laboratories, Inc; host or cells: rat brain without cerebellum
Procedure: A rat brain without cerebellum (Zivic Laboratories, Inc.—Pittsburgh, Pa.) was homogenized in a 52.6 mM Tris pH 8/126.4 mM NaCl/5.26 mM KCl mixture and centrifuged at 1,000 rpm for 5 min. The supernatant was removed and re-centrifuged at 15,000 rpm for 30 min. Pellets were re-homogenized in a 52.6 mM Tris pH8/126.4 mM NaCl/5.26 mM KCl mixture. Membranes were incubated with 0.6 nM [^3H]-Citalopram plus/minus test compounds for 60 min at 25° C. and harvested by rapid filtration over GF/C glass fiber filters (pretreated with 0.3% polyethylenimine) followed by four washes with ice-cold buffer. Nonspecific binding was defined in the presence of 100 μM fluoxetine.

human H3 receptor = molecular target: T2, human H3 receptor (Homo sapiens, UniProt Q9Y5N1); assay: H3 receptor binding (N-[3H]-α-methylhistamine displacement, SK-N-MC cell membranes); conditions: 0.8 nM N-[3H]-α-methylhistamine, 60 min at 25° C.
T2 construct: expressed in transfected cells
Procedure: Binding of compounds to the cloned human H3 receptor, stably expressed in SK-N-MC cells, was performed (Lovenberg, T. W. et al. J. Pharmacol. Exp. Ther. 2000, 293, 771-778). Briefly, cell pellets from SK-N-MC cells expressing the human H3 receptor were homogenized in 50 mM Tris-HCl/5 mM EDTA and re-centrifuged at 30,000 g for 30 min. Pellets were re-homogenized in 50 mM Tris/5 mM EDTA (pH 7.4). Membranes were incubated with 0.8 nM N—[^3H]-α-methylhistamine plus/minus test compounds for 60 min at 25° C. and harvested by rapid filtration over GF/C glass fiber filters (pretreated with 0.3% polyethylenimine) followed by four washes with ice-cold buffer. Nonspecific binding was defined in the presence of 10 μM histamine.

human SERT = molecular target: T3, human SERT (Homo sapiens, UniProt P31645); assay: Human SERT binding (3H-citalopram displacement, HEK293 membranes); conditions: 3H-citalopram 3.1 nM, rt for 1 h
T3 construct: expressed in transfected cells; host or cells: HEK293
Procedure: Homogenized HEK293 (Human Embryonic Kidney) membranes expressing the human SERT were incubated with ^3H-citalopram (SERT) at rt for 1 h in 50 mM Tris, 120 mM NaCl, 5 mM KCl (pH 7.4). Nonspecific binding was determined in the presence of 10 μM fluoxetine for the SERT. The membranes were washed and the radioactivity was counted as above. Calculations for Ki at the SERT were based on a Kd value for ^3H-citalopram and a ligand concentration of 3.1 nM.

T1 sequence (P31652 whole entry): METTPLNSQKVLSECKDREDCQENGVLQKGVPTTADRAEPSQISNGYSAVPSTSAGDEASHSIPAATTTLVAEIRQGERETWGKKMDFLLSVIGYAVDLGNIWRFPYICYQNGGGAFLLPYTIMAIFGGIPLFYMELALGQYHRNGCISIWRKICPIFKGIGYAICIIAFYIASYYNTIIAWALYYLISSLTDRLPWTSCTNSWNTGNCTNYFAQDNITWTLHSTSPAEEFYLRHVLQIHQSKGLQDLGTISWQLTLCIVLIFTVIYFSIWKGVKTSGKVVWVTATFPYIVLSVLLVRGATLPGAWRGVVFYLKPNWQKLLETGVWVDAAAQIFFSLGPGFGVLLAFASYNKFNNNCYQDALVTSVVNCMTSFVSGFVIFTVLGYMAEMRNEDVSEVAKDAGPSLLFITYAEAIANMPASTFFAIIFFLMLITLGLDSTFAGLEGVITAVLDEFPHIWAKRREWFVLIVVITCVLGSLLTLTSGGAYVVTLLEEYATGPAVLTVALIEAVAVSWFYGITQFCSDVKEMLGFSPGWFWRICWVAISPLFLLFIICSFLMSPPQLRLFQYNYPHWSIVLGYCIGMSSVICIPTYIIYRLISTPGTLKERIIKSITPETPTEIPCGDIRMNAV
T3 sequence (P31645 whole entry): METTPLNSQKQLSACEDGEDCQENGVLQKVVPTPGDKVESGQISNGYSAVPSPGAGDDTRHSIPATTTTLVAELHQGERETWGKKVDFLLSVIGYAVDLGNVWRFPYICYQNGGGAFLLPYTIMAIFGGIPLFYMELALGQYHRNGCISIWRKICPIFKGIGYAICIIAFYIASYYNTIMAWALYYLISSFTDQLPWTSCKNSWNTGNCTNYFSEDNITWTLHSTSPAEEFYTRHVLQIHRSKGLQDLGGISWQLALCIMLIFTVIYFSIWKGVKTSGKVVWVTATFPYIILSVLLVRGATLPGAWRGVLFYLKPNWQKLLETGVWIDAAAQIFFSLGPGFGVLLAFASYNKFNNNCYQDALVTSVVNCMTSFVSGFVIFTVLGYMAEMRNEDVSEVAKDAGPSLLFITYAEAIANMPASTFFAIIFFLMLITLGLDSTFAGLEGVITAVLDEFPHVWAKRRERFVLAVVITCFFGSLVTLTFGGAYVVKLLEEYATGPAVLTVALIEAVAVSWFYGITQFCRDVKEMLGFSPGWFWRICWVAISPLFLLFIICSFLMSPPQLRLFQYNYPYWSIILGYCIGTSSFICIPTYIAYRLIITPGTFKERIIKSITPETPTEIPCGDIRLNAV
T2 sequence (Q9Y5N1 whole entry): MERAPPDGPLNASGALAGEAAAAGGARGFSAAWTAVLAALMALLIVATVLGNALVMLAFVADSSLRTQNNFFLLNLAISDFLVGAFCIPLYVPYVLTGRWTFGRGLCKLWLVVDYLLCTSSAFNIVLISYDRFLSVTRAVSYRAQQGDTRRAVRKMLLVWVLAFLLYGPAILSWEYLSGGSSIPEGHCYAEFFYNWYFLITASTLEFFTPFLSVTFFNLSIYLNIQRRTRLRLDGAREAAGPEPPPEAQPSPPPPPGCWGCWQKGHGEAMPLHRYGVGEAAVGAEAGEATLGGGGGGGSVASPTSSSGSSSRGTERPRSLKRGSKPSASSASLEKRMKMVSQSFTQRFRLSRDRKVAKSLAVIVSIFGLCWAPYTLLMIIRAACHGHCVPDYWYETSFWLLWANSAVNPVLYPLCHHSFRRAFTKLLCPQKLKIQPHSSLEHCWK

Ki (Rat SERT) [nM]	Ki (human H3 receptor) [nM]	Ki (human SERT) [nM]	Structure (SMILES)
7	0.9	10	CN(C)CCC(Oc1ccc(Cl)cc1Cl)c1ccc(OCCCN2CCCCC2)cc1 (centres unmarked) [Example 16, {3-(2,4-Dichloro-phenoxy)-3-[4-(3-piperidin-1-yl-propoxy)-phenyl]-propyl}-dimethyl-amine]
3	23	5	CN(C)CCC(Oc1ccc(C(F)(F)F)cc1)c1ccc(CCCCN2CCCCC2)cc1 (centres unmarked) [Example 33, Dimethyl-[3-[4-(4-piperidin-1-yl-butyl)-phenyl]-3-(4-trifluoromethylphenoxy)-propyl]-amine]
39	255		CC(C)N1CCN(CCC#Cc2ccc(C(CCN(C)C)Oc3ccc(C(F)(F)F)cc3)cc2)CC1 (centres unmarked) [Example 29, [3-{4-[4-(4-Isopropyl-piperazin-1-yl)-but-1-ynyl]-phenyl}-3-(4-trifluoromethyl-phenoxy)-propyl]-dimethyl-amine]
11			CN(C)CCC(Oc1ccc(Cl)c(Cl)c1)c1ccc(OCCCN2CCCCC2)cc1 (single isomer, unassigned; (-)) [Example 74, (−){3-(3,4-Dichloro-phenoxy)-3-[4-(3-piperidin-1-yl-propoxy)phenyl]-propyl}-dimethyl-amine]
633	0.2	4000	c1ccc(OC(CCN2CCCC2)c2ccc(OCCCN3CCCCC3)cc2)cc1 (centres unmarked) [Example 73, 1-{3-[4-(1-Phenoxy-3-pyrrolidin-1-yl-propyl)-phenoxy]-propyl}-piperidine]
9.7			CN(C)CCC(Oc1ccc(Cl)c(Cl)c1)c1ccc(OCCCN2CCCCC2)cc1 (single isomer, unassigned; (+)) [Example 75, (+)-{3-(3,4-Dichloro-phenoxy)-3-[4-(3-piperidin-1-yl-propoxy)phenyl]-propyl}-dimethyl-amine]
223	22		CN(C)CCC(Oc1ccc(C(F)(F)F)cc1)c1ccc(C(=O)N2CCN(C3CCCCC3)CC2)cc1 (centres unmarked) [Example 78, (4-Cyclohexyl-piperazin-1-yl)-{4-[3-dimethylamino-1-(4-trifluoromethyl-phenoxy)-propyl]-phenyl}-methanone]
165	364		CN(C)CCC(Oc1ccc(C#CCCN2CCCCC2)cc1)c1ccc(F)cc1 (centres unmarked) [Example 77, {3-(4-Fluoro-phenyl)-3-[4-(4-piperidin-1-yl-but-1-ynyl)-phenoxy]-propyl}-dimethyl-amine]
80	60		CN(C)CCC(Oc1ccc(C(F)(F)F)cc1)c1ccc(C#CCCN2CCOCC2)cc1 (centres unmarked) [Example 27, Dimethyl-[3-[4-(4-morpholin-4-yl-but-1-ynyl)-phenyl]-3-(4-trifluoromethyl-phenoxy)-propyl]-amine]
150	29		CN(C)CCC(Oc1ccc(C#CCCN2CCSCC2)cc1)c1ccc(Cl)cc1 (centres unmarked) [Example 58, {3-(4-Chloro-phenyl)-3-[4-(4-thiomorpholin-4-yl-but-1-ynyl)phenoxy]-propyl}-dimethyl-amine]
48	73		CCCCN1CCN(Cc2ccc(C(CCN(C)C)Oc3ccc(C(F)(F)F)cc3)cc2)CC1 (centres unmarked) [Example 49, [3-[4-(4-Butyl-piperazin-1-ylmethyl)-phenyl]-3-(4-trifluoromethylphenoxy)-propyl]-dimethyl-amine]
65	0.7	1330	CN(C)CCC(Oc1cccc(OCCCN2CCCCC2)c1)c1ccccc1 (centres unmarked) [Example 37, Dimethyl-{3-phenyl-3-[3-(3-piperidin-1-yl-propoxy)-phenoxy]-propyl}-amine]
4	0.9	9	CN(C)CCC(Oc1ccc([N+](=O)[O-])cc1)c1ccc(OCCCN2CCCCC2)cc1 (centres unmarked) [Example 12, Dimethyl-{3-(4-nitro-phenoxy)-3-[4-(3-piperidin-1-yl-propoxy)phenyl]-propyl}-amine]
7	12	10	CC(C)N1CCN(CCCCc2ccc(C(CCN(C)C)Oc3ccc(C(F)(F)F)cc3)cc2)CC1 (centres unmarked) [Example 34, [3-[4-[4-(4-Isopropyl-piperazin-1-yl)-butyl]-phenyl]-3-(4-trifluoromethyl-phenoxy)-propyl]-dimethyl-amine]
43	11		COc1ccc(OC(CCN(C)C)c2ccc(C#CCCN3CCSCC3)cc2)cc1 (centres unmarked) [Example 26, {3-(4-Methoxy-phenoxy)-3-[4-(4-thiomorpholin-4-yl-but-1-ynyl)phenyl]-propyl}-dimethyl-amine]
537	75		CN(C)CCC(Oc1ccc(C#CCCN2CCSCC2)cc1)c1ccc(C(F)(F)F)cc1 (centres unmarked) [Example 76, Dimethyl-[3-[4-(4-thiomorpholin-4-yl-but-1-ynyl)-phenoxy]-3-(4-trifluoromethyl-phenyl)-propyl]-amine]
166	143		CC(C)N1CCN(CCC#Cc2ccc(OC(CCN(C)C)c3ccc(C(F)(F)F)cc3)cc2)CC1 (centres unmarked) [Example 62, [3-{4-[4-(4-Isopropyl-piperazin-1-yl)-but-1-ynyl]-phenoxy}-3-(4-trifluoromethyl-phenyl)-propyl]-dimethyl-amine]
170	122		CN(C)CCC(Oc1ccc(C(F)(F)F)cc1)c1ccc(C#CCCN2CCSCC2)cc1 (centres unmarked) [Example 28, Dimethyl-[3-[4-(4-thiomorpholin-4-yl-but-1-ynyl)-phenyl]-3-(4-trifluoromethyl-phenoxy)-propyl]-amine]
108	102		CN(C)CCC(Oc1ccc(C#CCCN2CCOCC2)cc1)c1ccccc1 (centres unmarked) [Example 61, Dimethyl-{3-[4-(4-morpholin-4-yl-but-1-ynyl)-phenoxy]-3-phenyl-propyl}-amine]
86	17		CCCCN1CCN(C(=O)c2ccc(C(CCN(C)C)Oc3ccc(C(F)(F)F)cc3)cc2)CC1 (centres unmarked) [Example 48, (4-Butyl-piperazin-1-yl)-{4-[3-dimethylamino-1-(4-trifluoromethylphenoxy)-propyl]-phenyl}-methanone]
39	21		CN(C)CCC(Oc1ccc(Cl)cc1)c1ccc(C#CCCN2CCCCC2)cc1 (centres unmarked) [Example 25, {3-(4-Chloro-phenoxy)-3-[4-(4-piperidin-1-yl-but-1-ynyl)-phenyl]-propyl}-dimethyl-amine]
58	1		CC(C)N1CCN(C(=O)c2ccc(OC(CCN(C)C)c3ccc(C(F)(F)F)cc3)cc2)CC1 (centres unmarked) [Example 46, {4-[3-Dimethylamino-1-(4-trifluoromethyl-phenyl)-propoxy]-phenyl}-(4-isopropyl-piperazin-1-yl)-methanone]
6			CN(C)CCC(Oc1ccc(Cl)c(Cl)c1)c1ccc(OCCCN2CCCCC2)cc1 (centres unmarked) [Example 9, {3-(3,4-Dichloro-phenoxy)-3-[4-(3-piperidin-1-yl-propoxy)-phenyl]-propyl}-dimethyl-amine]
21	24		CN(C)CCC(Oc1ccc(Cl)c(Cl)c1)c1ccc(C#CCCN2CCCCC2)cc1 (centres unmarked) [Example 30, {3-(3,4-Dichloro-phenoxy)-3-[4-(4-piperidin-1-yl-but-1-ynyl)phenyl]-propyl}-dimethyl-amine]
	1.7	7	CN(C)CCC(Oc1cccc(Cl)c1)c1ccc(OCCCN2CCCCC2)cc1 (centres unmarked) [Example 14, {3-(3-Chloro-phenoxy)-3-[4-(3-piperidin-1-yl-propoxy)-phenyl]-propyl}-dimethyl-amine]
181	56		CN(C)CCC(Oc1ccc(C#CCCN2CCOCC2)cc1)c1ccc(Cl)cc1 (centres unmarked) [Example 59, {3-(4-Chloro-phenyl)-3-[4-(4-morpholin-4-yl-but-1-ynyl)-phenoxy]-propyl}-dimethyl-amine]
342	4000		CN(C)CCC(Oc1ccc(C#CCCN2CCOCC2)cc1)c1ccc(C(F)(F)F)cc1 (centres unmarked) [Example 64, Dimethyl-[3-[4-(4-morpholin-4-yl-but-1-ynyl)-phenoxy]-3-(4-trifluoromethyl-phenyl)-propyl]-amine]
52	18		CN(C)CCC(Oc1ccc(C#CCCN2CCSCC2)cc1)c1ccccc1 (centres unmarked) [Example 63, Dimethyl-{3-phenyl-3-[4-(4-thiomorpholin-4-yl-but-1-ynyl)phenoxy]-propyl}-amine]

Structure (SMILES)	Ki (Rat SERT) [nM]	Ki (human H3 receptor) [nM]	Ki (human SERT) [nM]
CN(C)CCC(Oc1ccc(Cl)cc1)c1ccc(OCCCN2CCCCC2)cc1 (centres unmarked) [Example 8, {3-(4-Chloro-phenoxy)-3-[4-(3-piperidin-1-yl-propoxy)-phenyl]-propyl}-dimethyl-amine]	2	1.7	16
